Measured values reported in patent US20050208496A1, “Methods of testing for bronchial asthma or chronic obstructive pulmonary disease” (Genox Research, Inc., priority 2002, published 2005).

Tested on: respiratory epithelial cells

IL-13: human IL-13 (Peprotech, Inc.) added to the medium at 50 ng/mL to stimulate respiratory epithelial cells
TGM2 (38404_at) expression fold change upon IL-13 stimulation (lot 1, Day 7, AI method): 2.8 fold
TSPAN-3 (38612_at) expression, fold change upon IL-13 stimulation (lot 1, Day 7, AI method): 2.7 fold
TXNRD1 (39425_at) expression fold change upon IL-13 stimulation (lot 1, Day 7, AI method): 2.5 fold
UBE2L6 (40505_at) expression fold change upon IL-13 stimulation (lot 1, Day 7, AI method): 5.1 fold
UFD1L (811_at) expression, fold change upon IL-13 stimulation (lot 1, Day 7, AI method): 5.1 fold
W06879 (57696_at) expression fold change (lot 1, Day 7, AI method): 2.1 fold
ZNF263 (33288_i_at) expression fold change (lot 1, Day 7, AI method): 2.6 fold
diubiquitin (39959_at) expression, fold change upon IL-13 stimulation (lot 1, Day 7, AI method): 4.3 fold
AA053401 (56234_r_at) expression change (lot 1, Day 7, IMM): −5.7
AA059458 (65626_at) expression change (lot 1, Day 7, IMM): −3.1
AA456099 (59567_at) expression change (lot 1, Day 7, IMM): −2.3
AF052107 38262_at expression change (lot 1, Day 7, IMM): −4.5
AI050855 (64285_at) expression change (lot 1, Day 7, IMM): −3.7
AI432375 (49819_at) expression change (lot 1, Day 7, IMM): −6.3
AI770116 (70124_at) expression change (lot 1, Day 7, IMM): −2.1
AI798733 (64163_at) expression change (lot 1, Day 7, IMM): −2.3
AI829641 (84270_at) expression change (lot 1, Day 7, IMM): 11.7
AI948584 48086_at expression change (lot 1, Day 7, IMM): −6.2
AQP5 32909_at expression change (lot 1, Day 7, IMM): −2.5
ARHGEF4 36524_at expression change (lot 1, Day 7, IMM): −2.2
BARX2 35425_at expression change (lot 1, Day 7, IMM): −2.7
CBLB 514_at expression change (lot 1, Day 7, IMM): −2.4
CBLB 35632_at expression change (lot 1, Day 7, IMM): −2
CRABP-II 1057_at expression change (lot 1, Day 7, IMM): −2.7
DKFZp434K1210 44682_at expression change (lot 1, Day 7, IMM): −2.1
DSC3 (79615_at) expression change (lot 1, Day 7, IMM): −4
DSC3a, b 47119_at expression change (lot 1, Day 7, IMM): −3.4
DSC3a, b 79615_at expression change (lot 1, Day 7, IMM): −4
EIF4EBP1 (54152_at) expression change (lot 1, Day 7, IMM): −7.3
FLJ10718 52072_at expression change (lot 1, Day 7, IMM): −8
FLJ20373 54030_at expression change (lot 1, Day 7, IMM): −2.1
FLJ23516 47534_at expression change (lot 1, Day 7, IMM): −5.4
GJA1 32531_at expression change (lot 1, Day 7, IMM): −5.5
HEY1 44783_s_at expression change (lot 1, Day 7, IMM): −3.4
HIN-1 (46200_at) expression change (lot 1, Day 7, IMM): −4
ID1 36619_r_at expression change (lot 1, Day 7, IMM): −3.9
IL20RA 42969_at expression change (lot 1, Day 7, IMM): −2.9
IVL 36355_at expression change (lot 1, Day 7, IMM): −4.5
K1IAA1102 (64345_s_at) expression change (lot 1, Day 7, IMM): −5.6
KCNMA1 (53796_at) expression change (lot 1, Day 7, IMM): −3
KIAA0878 (48793_at) expression change (lot 1, Day 7, IMM): −2.4
KLF7 34216_at expression change (lot 1, Day 7, IMM): −6.3
KLF7 (42769_at) expression change (lot 1, Day 7, IMM): −3.7
KRT6B (62998_at) expression change (lot 1, Day 7, IMM): −2.5
KRT15 37582_at expression change (lot 1, Day 7, IMM): −2
LOC51297 (49616_at) expression change (lot 1, Day 7, IMM): −3.9
LOC51297 (55440_at) expression change (lot 1, Day 7, IMM): −3.7
LOC51297 (55442_g_at) expression change (lot 1, Day 7, IMM): −12.8
LOC129642 (42065_at) expression change (lot 1, Day 7, IMM): −4.3
LOC129642 (58288_at) expression change (lot 1, Day 7, IMM): −3.9
MGC14128 55924_at expression change (lot 1, Day 7, IMM): −2.7
MGC14128 (51669_r_at) expression change (lot 1, Day 7, IMM): −2.1
MGC16207 (65876_at) expression change (lot 1, Day 7, IMM): −2.3
N71183 52473_at expression change (lot 1, Day 7, IMM): −2.1
PR01489 57777_at expression change (lot 1, Day 7, IMM): −10.9
RAC2 32737_at expression change (lot 1, Day 7, IMM): −3.2
SEMA4B (46709_at) expression change (lot 1, Day 7, IMM): −2.2
SERPINA3 (75248_at) expression change (lot 1, Day 7, IMM): −16.3
SPRR1B 37160_at expression change (lot 1, Day 7, IMM): −2.4
T52027 (63150_at) expression change (lot 1, Day 7, IMM): 2.5
TCF8 33439_at expression change (lot 1, Day 7, IMM): −2.4
TGFBI (68339_at) expression change (lot 1, Day 7, IMM): −3.2
TNNT1 36113_s_at expression change (lot 1, Day 7, IMM): −4.9
TNRC3 41246_at expression change (lot 1, Day 7, IMM): −2.4
TPM1 36790_at expression change (lot 1, Day 7, IMM): −5.5
TPM1 36791_g_at expression change (lot 1, Day 7, IMM): −7.5
TPM1 36792_at expression change (lot 1, Day 7, IMM): −5.7
UGB 39220_at expression change (lot 1, Day 7, IMM): −8.2
VIM 34091_s_at expression change (lot 1, Day 7, IMM): −6.6
W55956 46700_at expression change (lot 1, Day 7, IMM): −2.4
W72331 49486 at expression change (lot 1, Day 7, IMM): −4.8
ADAM8 (40712_at) expression, fold change upon IL-13 stimulation (lot 1, Day 7, IMM method): 2.8 fold
ADAM28 (35479_at) expression, fold change upon IL-13 stimulation (lot 1, Day 7, IMM method): 6.4 fold
AI659927 (54033_at) expression fold change (lot 1, Day 7, IMM method): 11 fold
AI718385 (53061_at) expression fold change (lot 1, Day 7, IMM method): 3.2 fold
AI809925 (53010_at) expression fold change (lot 1, Day 7, IMM method): 2.8 fold
AI989346 (52327_s_at) expression fold change (lot 1, Day 7, IMM method): 2.1 fold
AKAP2 (35985_at) expression, fold change upon IL-13 stimulation (lot 1, Day 7, IMM method): 2.2 fold
ALOX15 (34636_at) expression, fold change upon IL-13 stimulation (lot 1, Day 7, IMM method): 118.8 fold
AW019985 (48826_s_at) expression fold change (lot 1, Day 7, IMM method): 10.8 fold
BRCA1 (626_s_at) expression fold change (lot 1, Day 7, IMM method): 2.4 fold
BST2 (39061_at) expression, fold change upon IL-13 stimulation (lot 1, Day 7, IMM method): 5.4 fold
C21orf11 (58957_at) expression fold change (lot 1, Day 7, IMM method): 6 fold
CCND3 (1794_at) expression fold change upon IL-13 stimulation (lot 1, Day 7, IMM method): 2.3 fold
CDH6 (1620_at) expression fold change upon IL-13 stimulation (lot 1, Day 7, IMM method): 4.2 fold
CDH6 (57421_at) expression fold change (lot 1, Day 7, IMM method): 4.5 fold
CDH26 (46916_at) expression fold change (lot 1, Day 7, IMM method): 9.3 fold
CH25H (32363_at) expression, fold change upon IL-13 stimulation (lot 1, Day 7, IMM method): 11.4 fold
CLDN4 (35276_at) expression, fold change upon IL-13 stimulation (lot 1, Day 7, IMM method): 2.1 fold
CLDN5 (38995_at) expression, fold change upon IL-13 stimulation (lot 1, Day 7, IMM method): 3.9 fold
CTSC (133_at) expression, fold change upon IL-13 stimulation (lot 1, Day 7, IMM method): 5.6 fold
CXCL16 (44095_at) expression fold change (lot 1, Day 7, IMM method): 2.6 fold
DD96 (31610_at) expression, fold change upon IL-13 stimulation (lot 1, Day 7, IMM method): 9.5 fold
DKFZP564O0823 (41402_at) expression, fold change upon IL-13 stimulation (lot 1, Day 7, IMM method): 9.6 fold
DKFZP566J091 (57197_at) expression fold change (lot 1, Day 7, IMM method): 4.2 fold
DKFZp564N1116 (37784_at) expression, fold change upon IL-13 stimulation (lot 1, Day 7, IMM method): 6 fold
DPP4 (34823_at) expression fold change upon IL-13 stimulation (lot 1, Day 7, IMM method): 3.9 fold
DPYD (38220_at) expression fold change upon IL-13 stimulation (lot 1, Day 7, IMM method): 6.9 fold
EMILIN-2 (51628_at) expression fold change (lot 1, Day 7, IMM method): 5 fold
FETUB (32620_at) expression fold change (lot 1, Day 7, IMM method): 7.4 fold
FETUB (33101_g_at) expression fold change (lot 1, Day 7, IMM method): 7.7 fold
FLJ10261 (43366_at) expression fold change (lot 1, Day 7, IMM method): 8.4 fold
FLJ22693 (53777_at) expression fold change (lot 1, Day 7, IMM method): 2.2 fold
GADD45G (39154_at) expression fold change upon IL-13 stimulation (lot 1, Day 7, IMM method): 3.1 fold
HAS3 (54604_at) expression fold change (lot 1, Day 7, IMM method): 2.2 fold
HLA-F (37420_i_at) expression, fold change upon IL-13 stimulation (lot 1, Day 7, IMM method): 2.4 fold
